This is an account of results in patent US7550458B2, “Tricycloundecane compounds useful as modulators of nuclear hormone receptor function” (Bristol-Myers Squibb Company, priority 2005, dated 2009).

Experiment [1] addresses glucocorticoid receptor (Homo sapiens, UniProt P04150). Conditions: at a concentration of ≦10 μM, A549 cells. As to the method: Cells are plated the day before the assay at approximately 40000 cells/well. […] Activity is measured by analysis in a luminometer as compared to control experiments treated with buffer or dexamethasome.
The target of experiment [2] is T1, AR (Rattus norvegicus, UniProt P15207).
T1 sequence (P15207 1-902): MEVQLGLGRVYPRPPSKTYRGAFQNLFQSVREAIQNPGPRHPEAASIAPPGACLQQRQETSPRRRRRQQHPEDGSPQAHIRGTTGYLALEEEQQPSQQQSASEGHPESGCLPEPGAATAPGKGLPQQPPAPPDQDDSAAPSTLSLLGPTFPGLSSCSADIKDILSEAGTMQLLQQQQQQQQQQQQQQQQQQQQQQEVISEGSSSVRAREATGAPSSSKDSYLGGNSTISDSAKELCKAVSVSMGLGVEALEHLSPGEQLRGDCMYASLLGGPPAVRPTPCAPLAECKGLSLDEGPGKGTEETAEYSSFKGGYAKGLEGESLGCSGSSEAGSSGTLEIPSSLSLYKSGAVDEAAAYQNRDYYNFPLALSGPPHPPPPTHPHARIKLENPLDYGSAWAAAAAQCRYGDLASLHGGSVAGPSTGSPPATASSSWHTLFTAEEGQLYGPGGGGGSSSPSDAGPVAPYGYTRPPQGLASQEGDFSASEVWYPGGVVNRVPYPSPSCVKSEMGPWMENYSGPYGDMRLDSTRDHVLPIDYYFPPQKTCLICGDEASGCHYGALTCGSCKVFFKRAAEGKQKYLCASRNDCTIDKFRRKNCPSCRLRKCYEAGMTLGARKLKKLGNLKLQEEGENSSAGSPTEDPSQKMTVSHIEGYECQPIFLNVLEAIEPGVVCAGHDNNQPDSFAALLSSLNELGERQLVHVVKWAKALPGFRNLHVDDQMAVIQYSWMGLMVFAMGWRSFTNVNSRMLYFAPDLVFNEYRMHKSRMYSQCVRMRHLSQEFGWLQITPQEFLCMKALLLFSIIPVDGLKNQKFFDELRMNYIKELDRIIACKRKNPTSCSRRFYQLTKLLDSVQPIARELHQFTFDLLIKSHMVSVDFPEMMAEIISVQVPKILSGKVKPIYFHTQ

In experiment [3] the target is T1, AR. The following applies: castrated rats, dosing for 3 days.
Experiment [4] concerns wild type AR. As to the kind of experiment: AR whole cell binding assay, saturation analysis, MDA 453 cells. Also noted: species or system human. The following applies: read-out: Kd for [^3H]-DHT, Scatchard analysis.

SMILES strings stand for the structures. Read-outs that look alike come from different tables or passages of the source.

Sequence of glucocorticoid receptor (P04150 whole entry): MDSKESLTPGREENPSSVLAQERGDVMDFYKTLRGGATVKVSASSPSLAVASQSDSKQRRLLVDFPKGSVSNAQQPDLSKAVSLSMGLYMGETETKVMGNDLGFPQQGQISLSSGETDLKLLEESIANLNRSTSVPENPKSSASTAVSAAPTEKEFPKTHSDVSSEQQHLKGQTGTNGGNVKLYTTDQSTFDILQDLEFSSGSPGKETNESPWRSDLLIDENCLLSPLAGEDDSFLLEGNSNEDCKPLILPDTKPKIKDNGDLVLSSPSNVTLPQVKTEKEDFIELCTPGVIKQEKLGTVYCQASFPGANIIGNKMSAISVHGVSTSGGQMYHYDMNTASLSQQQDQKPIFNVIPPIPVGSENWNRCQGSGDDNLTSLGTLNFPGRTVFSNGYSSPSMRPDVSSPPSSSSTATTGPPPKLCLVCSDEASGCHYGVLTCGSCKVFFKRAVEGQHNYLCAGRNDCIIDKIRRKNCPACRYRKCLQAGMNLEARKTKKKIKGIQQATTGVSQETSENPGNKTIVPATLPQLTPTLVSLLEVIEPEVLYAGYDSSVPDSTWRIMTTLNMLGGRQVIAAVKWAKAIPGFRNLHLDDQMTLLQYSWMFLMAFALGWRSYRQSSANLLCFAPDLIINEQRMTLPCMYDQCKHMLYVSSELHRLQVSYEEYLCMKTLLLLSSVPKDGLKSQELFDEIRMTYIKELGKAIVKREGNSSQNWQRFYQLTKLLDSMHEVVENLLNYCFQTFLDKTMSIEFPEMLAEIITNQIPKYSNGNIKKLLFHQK

As to `C[C@@H]1C[C@H]2[C@@H]3CCC4=CC(=O)C=C[C@]4(C)[C@@]3(F)[C@@H](O)C[C@]2(C)[C@@]1(O)C(=O)CO` [dexamethasone], the “suppression of activity (% inhibition of the reporter system vs buffer control with 10 ng/ml PMA)” value in experiment [1] is reported as roughly 65%. Take `CCC(=O)O[C@H]1CC[C@H]2[C@@H]3CCC4=CC(=O)CC[C@]4(C)[C@H]3CC[C@]12C` [TP, testosterone propionate]: the “ED80 of TP” value in experiment [2] (immature castrated rat model) came to 0.1 mg. For the same molecule, the “EC50 (increase in organ weight)” value in experiment [2] (immature castrated rats, dosing for 3 days) is on record as roughly 0.03 mg; in experiment [3], roughly 0.03 mg.

The term Kd denotes the constant that tells how readily two partners part at equilibrium. As for `C[C@]12CCC(=O)C[C@@H]1CC[C@@H]1[C@@H]2CC[C@]2(C)[C@@H](O)CC[C@@H]12` [[^3H]-DHT], the Kd in experiment [4] is […].
